pEC50: −log10 of the molar value.
Molecular target: T1, Human M4 receptors (Homo sapiens, UniProt P08173)
T1 construct: expressed in transfected cells; host or cells: HEK293 cells with Promega GloSensor cAMP technology, stably expressing hM4
T1 sequence (P08173 1-479): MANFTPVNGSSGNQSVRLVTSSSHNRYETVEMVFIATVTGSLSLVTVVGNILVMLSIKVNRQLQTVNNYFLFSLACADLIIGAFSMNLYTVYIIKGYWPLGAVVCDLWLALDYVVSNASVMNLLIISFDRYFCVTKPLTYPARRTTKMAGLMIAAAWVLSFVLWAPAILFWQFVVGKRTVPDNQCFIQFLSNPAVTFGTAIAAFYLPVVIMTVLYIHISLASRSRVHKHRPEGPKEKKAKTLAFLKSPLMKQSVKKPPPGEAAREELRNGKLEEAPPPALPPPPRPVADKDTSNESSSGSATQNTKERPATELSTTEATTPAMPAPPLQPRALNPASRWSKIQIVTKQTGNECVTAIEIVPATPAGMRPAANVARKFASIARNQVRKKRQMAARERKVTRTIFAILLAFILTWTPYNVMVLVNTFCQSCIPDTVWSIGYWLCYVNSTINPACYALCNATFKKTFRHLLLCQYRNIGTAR
Assay: M4 PAM cAMP assay (GloSensor)
Format: cell-based
Conditions: for Emax: HEK293, read-out: M4 glosensor EC50 Mean Asymptote Maximum (%); for pEC50: HEK293 GloSensor cells expressing hM4, with EC20 acetylcholine and isoproterenol, geometric mean of 2-4 determinations unless otherwise indicated
Method: The M4 PAM binding affinity for the compounds of the present invention was determined utilizing the following biological assay(s):
The M4 cAMP assay was designed to determine the potency and efficacy of muscarinic positive allosteric modulators (PAMs). Human M4 receptors were stably expressed in Human embryonic kidney (HEK293) cells expressed with the Promega GloSensor™ cAMP technology.
HEK293 GloSensor cells expressing hM4 cells were cultured in growth media containing DMEM with 10% FBS, 1% Penicillin/Streptomycin, 500 μg/mL G418, 200 μg/mL Hygomycin B, and 1% Glutamax. […] Plates were incubated at 37 degrees C. and 5% CO2 for use after 24 hours.
Compound Preparation for Agonist Screen:
Each compound was tested at 10 concentrations in duplicate per experiment. Compound plates are spotted with 0.2 μL/well agonist at 400 times the final assay concentration. Positive and negative controls for the compound alone agonist response was 10 μM acetylcholine (Sigma #A2661) and DMSO, respectively. EC20 of acetylcholine was also used to define PAM activities.
Promega GloSensor™ reagent (Promega #E1291) had previously been aliquotted. […] Stock solution was mixed. Culture media in cell plates was discarded, then replaced with 40 μL/well pre-warmed equilibration media, then incubated in the dark at room temperature for 2 hours. During the incubation, stimulation media containing agonist and EC20 acetylcholine was prepared. […] Compounds are now 5 times the final assay concentration. The plate was mixed using a plate agitator. At the end of the 2 hour GloSensor™ incubation, add 10 μL of the CO2-independent media containing agonist, EC20 acetylcholine and isoproterenol to the cell plate. Cell plate was then incubated for 10 minutes at room temperature, and then read using an EnVision plate reader (Perkin Elmer).
Data was exported from the EnVision plate reader. The percent effect for each well was determined using the mean values for the positive and negative controls on each plate for each read, specifically 100*(compound−negative control)/(positive control−negative control). Dose response curves were fitted to the compound percent effect data using a 4-parameter logistic fit model. Data was reported as EC50 and Emax, with the Emax as the maximum asymptote of the fitted dose response curve.

| Structure (SMILES) | Emax [%] | pEC50 |
| --- | --- | --- |
| COc1ccc(C#N)cc1N1CC(CC(=O)N2Cc3nc(C)cc(C)c3C2)C1 [Example 69, 3-{3-[2-(2,4-dimethyl-5,7-dihydro-6H-pyrrolo[3,4-b]pyridin-6-yl)-2-oxoethyl]azetidin-1-yl}-4-methoxybenzonitrile] | 41.5 | 5.87 |
| Cc1ccc([C@H]2C[C@@H]2CC(=O)N2Cc3nc(C)cc(C)c3C2)cn1 [Example 17, 1-(2,4-Dimethyl-5,7-dihydro-6H-pyrrolo[3,4-b]pyridin-6-yl)-2-[(1R,2S)-2-(6-methylpyridin-3-yl)cyclopropyl]ethanone] | 107 | 7.14 |
| Cc1cc(C)c2c(n1)CN(C(=O)CC1CN(c3cc(NC(C)C)ncn3)C1)C2 [Example 42, 1-(2,4-dimethyl-5,7-dihydro-6H-pyrrolo[3,4-b]pyridin-6-yl)-2-{1-[6-(propan-2-ylamino)pyrimidin-4-yl]azetidin-3-yl}ethanone] | 93.9 | 8.30 |
| Cc1nc2c(c(C)c1Cl)CN(C(=O)OC1CN(c3ncns3)C1)C2 [Example 67, 1-(1,2,4-thiadiazol-5-yl)azetidin-3-yl 3-chloro-2,4-dimethyl-5,7-dihydro-6H-pyrrolo[3,4-b]pyridine-6-carboxylate] | 98.6 | 7.73 |
| Cc1cc(C)c2c(n1)CN(C(=O)CC1CN(c3ccnnc3)C1)C2 [Example 30, 1-(2,4-dimethyl-5,7-dihydro-6H-pyrrolo[3,4-b]pyridin-6-yl)-2-[1-(pyridazin-4-yl)azetidin-3-yl]ethanone] | 103 | 7.52 |
| COCc1cc(C)c2c(n1)CN(C(=O)CC1CN(c3cncnc3)C1)C2 [Example 31, 1-[2-(methoxymethyl)-4-methyl-5,7-dihydro-6H-pyrrolo[3,4-b]pyridin-6-yl]-2-[1-(pyrimidin-5-yl)azetidin-3-yl]ethanone] | 89.3 | 7.75 |
| Cc1nc2c(c(C)c1Cl)CN(C(=O)CC1CN(c3nncs3)C1)C2 [Example 44, 1-(3-chloro-2,4-dimethyl-5,7-dihydro-6H-pyrrolo[3,4-b]pyridin-6-yl)-2-[1-(1,3,4-thiadiazol-2-yl)azetidin-3-yl]ethanone] | 112 | 7.77 |

Further lines, results first:

| Emax [%] | pEC50 | Structure (SMILES) |
| --- | --- | --- |
| 110 | 8.66 | COCc1nc2c(c(C)c1Cl)CN(C(=O)CC1CN(c3ccnc(C(F)F)c3)C1)C2 [Example 47, 1-[3-chloro-2-(methoxymethyl)-4-methyl-5,7-dihydro-6H-pyrrolo[3,4-b]pyridin-6-yl]-2-{1-[2-(difluoromethyl)pyridin-4-yl]azetidin-3-yl}ethanone] |
| 100 | 7.85 | Cc1cc(CO)nc2c1CN(C(=O)CC1CN(c3ccnc(C(F)(F)F)c3)C1)C2 [Example 33, 1-[2-(hydroxymethyl)-4-methyl-5,7-dihydro-6H-pyrrolo[3,4-b]pyridin-6-yl]-2-{1-[2-(trifluoromethyl)pyridin-4-yl]azetidin-3-yl}ethanone] |
| 92.2 | 8.21 | Cc1nc2c(c(C)c1C)CN(C(=O)CC1CN(c3cccnc3)C1)C2 [Example 23, 2-[1-(pyridin-3-yl)azetidin-3-yl]-1-(2,3,4-trimethyl-5,7-dihydro-6H-pyrrolo[3,4-b]pyridin-6-yl)ethanone] |
| 104 | 7.41 | Cc1c(C(F)F)nc2c(c1C)CN(C(=O)CC1CN(c3ccnc(C(F)F)c3)C1)C2 [Example 53, 1-[2-(difluoromethyl)-3,4-dimethyl-5,7-dihydro-6H-pyrrolo[3,4-b]pyridin-6-yl]-2-{1-[2-(difluoromethyl)pyridin-4-yl]azetidin-3-yl}ethanone] |
| 94.4 | 7.77 | COCc1cc(C)c2c(n1)CN(C(=O)CC1CN(c3cccnc3)C1)C2 [Example 27, 1-[2-(methoxymethyl)-4-methyl-5,7-dihydro-6H-pyrrolo[3,4-b]pyridin-6-yl]-2-[1-(pyridin-3-yl)azetidin-3-yl]ethanone] |
| 99.1 | 7.64 | COCc1cc(C)c2c(n1)CN(C(=O)CC1CN(c3ccnc(OC(F)F)c3)C1)C2 [Example 8, 2-{1-[2-(Difluoromethoxy)pyridin-4-yl]azetidin-3-yl}-1-[2-(methoxymethyl)-4-methyl-5,7-dihydro-6H-pyrrolo[3,4-b]pyridin-6-yl]ethanone] |
| 111 | 8.33 | COCc1nc2c(c(C)c1Cl)CN(C(=O)CC1CN(c3ccnc(OC(F)F)c3)C1)C2 [Example 52, 1-[3-chloro-2-(methoxymethyl)-4-methyl-5,7-dihydro-6H-pyrrolo[3,4-b]pyridin-6-yl]-2-{1-[2-(difluoromethoxy)pyridin-4-yl]azetidin-3-yl}ethanone] |
| 93.5 | 7.81 | Cc1cc(C(F)F)nc2c1CN(C(=O)CC1CN(c3ccnc(C(F)F)c3)C1)C2 [Example 45, 1-[2-(difluoromethyl)-4-methyl-5,7-dihydro-6H-pyrrolo[3,4-b]pyridin-6-yl]-2-{1-[2-(difluoromethyl)pyridin-4-yl]azetidin-3-yl}ethanone] |

— patent publication US11905284B2, “5,7-dihydro-pyrrolo-pyridine derivatives” (PFIZER INC., priority 2016, dated 2024)
